In ChEMBL document CHEMBL3992540, “Novel indolin-2-one-based sulfonamides as carbonic anhydrase inhibitors: Synthesis, in vitro biological evaluation against carbonic anhydrases isoforms I, II, IV and VII and molecular docking studies” (Eur J Med Chem, 2017):

How the values were obtained:
[1] = target: Carbonic anhydrase 1 (Homo sapiens, UniProt P00915); assay: Inhibition of human recombinant carbonic anhydrase 1 incubated for 15 mins prior to testing by stopped-flow CO2 hydration assay
[2] = target: Carbonic anhydrase 7 (Homo sapiens, UniProt P43166); assay: Inhibition of human recombinant carbonic anhydrase 7 incubated for 15 mins prior to testing by stopped-flow CO2 hydration assay
Chain of Carbonic anhydrase 7 (P43166 whole entry): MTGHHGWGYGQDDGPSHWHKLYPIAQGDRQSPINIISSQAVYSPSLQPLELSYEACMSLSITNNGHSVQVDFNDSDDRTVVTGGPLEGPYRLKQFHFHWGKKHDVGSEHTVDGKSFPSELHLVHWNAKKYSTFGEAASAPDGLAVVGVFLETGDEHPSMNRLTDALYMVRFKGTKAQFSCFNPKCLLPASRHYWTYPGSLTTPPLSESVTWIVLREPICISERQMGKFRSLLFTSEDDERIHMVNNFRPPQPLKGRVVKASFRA

[3] = target: Carbonic anhydrase 2 (Homo sapiens, UniProt P00918); assay: Inhibition of human recombinant carbonic anhydrase 2 incubated for 15 mins prior to testing by stopped-flow CO2 hydration assay
[4] = target: Carbonic anhydrase 4 (Homo sapiens, UniProt P22748); assay: Inhibition of human recombinant carbonic anhydrase 4 incubated for 15 mins prior to testing by stopped-flow CO2 hydration assay
Chain of Carbonic anhydrase 4 (P22748 whole entry): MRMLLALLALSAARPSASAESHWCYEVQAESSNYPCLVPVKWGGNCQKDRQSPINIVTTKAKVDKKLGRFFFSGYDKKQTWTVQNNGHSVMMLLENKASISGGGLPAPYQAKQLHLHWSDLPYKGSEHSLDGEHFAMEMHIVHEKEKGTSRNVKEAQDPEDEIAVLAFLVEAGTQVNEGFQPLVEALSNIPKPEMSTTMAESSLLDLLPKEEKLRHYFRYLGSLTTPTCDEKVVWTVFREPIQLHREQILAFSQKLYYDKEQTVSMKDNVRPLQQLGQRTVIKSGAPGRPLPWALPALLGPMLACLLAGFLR

Chain of Carbonic anhydrase 1 (P00915 whole entry): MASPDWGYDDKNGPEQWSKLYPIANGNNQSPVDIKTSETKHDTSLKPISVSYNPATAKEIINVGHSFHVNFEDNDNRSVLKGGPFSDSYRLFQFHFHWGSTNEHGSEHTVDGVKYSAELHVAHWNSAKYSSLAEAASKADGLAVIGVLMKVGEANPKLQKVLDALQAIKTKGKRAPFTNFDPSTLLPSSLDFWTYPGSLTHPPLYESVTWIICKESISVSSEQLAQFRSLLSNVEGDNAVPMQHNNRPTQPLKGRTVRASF

Row | Compound | Ki [1] | Ki [2] | Ki [3] | Ki [4]
1 | NS(=O)(=O)c1ccc(CC/N=C2\C(=O)N(Cc3ccccc3)c3ccc(Cl)cc32)cc1 | 8550 nM | > 10000 nM |  | 
2 | NS(=O)(=O)c1ccc(CC/N=C2\NC(=O)/C(=C3/C(=O)Nc4ccccc43)S2)cc1 | 875 nM |  | 262 nM | 
3 | NS(=O)(=O)c1ccc(CC/N=C2\NC(=O)/C(=C3/C(=O)Nc4ccc(Br)cc43)S2)cc1 | 3600 nM | 79.3 nM | 157 nM | 40.7 nM
4 | NS(=O)(=O)c1ccc(CC/N=C2\NC(=O)CS2)cc1 | 93.9 nM | 13.2 nM | 6.6 nM | 79.4 nM
5 | NS(=O)(=O)c1ccc(CC/N=C2\C(=O)N(Cc3ccccc3)c3ccc(Br)cc32)cc1 | 6150 nM |  |  | 
6 | NS(=O)(=O)c1ccc(CC/N=C2\NC(=O)/C(=C3/C(=O)Nc4ccc(Cl)cc43)S2)cc1 | 4450 nM |  | 302 nM | 
7 | NS(=O)(=O)c1ccc(CC/N=C2\C(=O)N(Cc3ccccc3)c3ccccc32)cc1 | 746 nM | 536 nM |  | 
8 | NS(=O)(=O)c1ccc(CC/N=C2\NC(=O)/C(=C3/C(=O)Nc4ccc([N+](=O)[O-])cc43)S2)cc1 | 265 nM |  | 28.6 nM | 

Other lines, results leading:

Row | Ki [1] | Ki [2] | Ki [3] | Ki [4] | Compound
9 | 845 nM | 67.2 nM | 63.9 nM |  | Cc1ccc2c(c1)/C(=C1/S/C(=N/CCc3ccc(S(N)(=O)=O)cc3)NC1=O)C(=O)N2
10 | 64.1 nM |  |  |  | NS(=O)(=O)c1ccc(CC/N=C2\C(=O)Nc3ccc(Cl)cc32)cc1
11 | 316 nM |  |  |  | Cc1ccc2c(c1)/C(=N/CCc1ccc(S(N)(=O)=O)cc1)C(=O)N2
12 | 256 nM | 90.9 nM | 50.5 nM |  | Cc1cc(C)c2c(c1)/C(=N/CCc1ccc(S(N)(=O)=O)cc1)C(=O)N2
13 | 42 nM | 28.6 nM |  |  | CN1C(=O)/C(=N\CCc2ccc(S(N)(=O)=O)cc2)c2ccccc21
14 | 92.5 nM |  |  |  | NS(=O)(=O)c1ccc(CC/N=C2\C(=O)Nc3ccccc32)cc1
15 | 668 nM | 91 nM | 7.7 nM | 31.2 nM | CN1C(=O)/C(=N\CCc2ccc(S(N)(=O)=O)cc2)c2cc(Cl)ccc21
16 | 206 nM |  |  |  | COc1ccc2c(c1)/C(=N/CCc1ccc(S(N)(=O)=O)cc1)C(=O)N2
17 | 81.5 nM |  |  |  | NS(=O)(=O)c1ccc(CC/N=C2\C(=O)Nc3ccc(Br)cc32)cc1
18 | 64.9 nM |  | 5.9 nM |  | CN1C(=O)/C(=N\CCc2ccc(S(N)(=O)=O)cc2)c2cc(Br)ccc21
